The IC50 is the point on the concentration scale where inhibition reaches its midpoint. Higher therefore signals a need for much substance.

Molecules are shown by their SMILES.

This assay concerns the target T1, Membrane-associated tyrosine- and threonine-specific cdc2-inhibitory kinase (Homo sapiens, UniProt Q99640).
T1 sequence (Q99640 whole entry): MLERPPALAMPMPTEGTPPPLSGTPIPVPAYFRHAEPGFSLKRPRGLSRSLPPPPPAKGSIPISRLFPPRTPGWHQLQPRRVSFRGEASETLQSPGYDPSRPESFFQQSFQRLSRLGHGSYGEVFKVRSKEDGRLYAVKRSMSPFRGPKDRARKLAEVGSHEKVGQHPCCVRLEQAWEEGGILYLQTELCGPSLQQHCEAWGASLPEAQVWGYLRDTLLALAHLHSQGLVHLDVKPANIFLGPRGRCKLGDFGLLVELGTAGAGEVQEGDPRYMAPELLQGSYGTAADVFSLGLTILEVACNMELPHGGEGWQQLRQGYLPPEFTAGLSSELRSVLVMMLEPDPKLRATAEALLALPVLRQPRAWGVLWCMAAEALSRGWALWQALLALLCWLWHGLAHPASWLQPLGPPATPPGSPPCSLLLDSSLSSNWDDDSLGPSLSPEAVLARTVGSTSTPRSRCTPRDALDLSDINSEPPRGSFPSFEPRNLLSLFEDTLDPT
Kind of assay: PKMYT1 HTRF Assay. Here is the method:
Compound serial dilution is performed by Echo, and the final concentrations vary from 10 μM to 0.5 nM. This was filled by the addition of 5 μL/well of Enzyme solution to the assay plate containing the compound. The plate was centrifuged at 1000 rpm for 1 minute, and incubate 15 minutes at 25 […]. Then 5 μL/well of tracer solution (Tracer 178) was added to initiate the reaction, and incubate for 60 minutes at 25° C. Next 5 μL GST-Tb was added into the assay plate, the plate was centrifuged at 1000 rpm for 1 minute, and incubate for 15 minutes at 25 […]. The assay plate was read on Envision.
In general terms: In TR-FRET formats the signal depends on donor and acceptor labels being close together.
`Cc1ccc(O)c(C)c1-c1cnc2[nH]c(-c3cnc(N)c(C(F)(F)F)c3)cc2c1C#N` [US20250136596, Example 62] yielded an IC50 of less than 10 nM.
`Cc1ccc(O)c(C)c1-c1cnc2[nH]c(-c3cncc(C#N)c3)cc2c1C#N` [US20250136596, Example 61] had an IC50 of less than 10 nM.
The compound `Cc1ncc(-c2cc3c(Cl)c(-c4c(C)ccc(O)c4C)cnc3[nH]2)cn1` [US20250136596, Example 23] had a half-maximal inhibitory concentration (IC50) of less than 10 nM.
`Cc1ncc(-c2[nH]c3ncc(-c4c(C)ccc(O)c4C)c(C#N)c3c2F)cn1` [US20250136596, Example 35]: the IC50 was less than 10 nM.
Under `CNc1ncc(-c2cc3c(C#N)c(-c4c(C)ccc(O)c4C)cnc3[nH]2)cn1` [US20250136596, Example 41] stands less than 10 nM; under `Cc1ccc(O)c(C)c1-c1cnc2[nH]c(-c3cnc4cn[nH]c4c3)cc2c1C#N` [US20250136596, Example 124], less than 10 nM.
As for `Cc1ncc(-c2[nH]c3ncc(-c4c(C)ccc(O)c4C)c(C#N)c3c2C)cn1` [US20250136596, Example 107], the figure is less than 10 nM.
On to `Cc1ccc(O)c(C)c1-c1cnc2[nH]c(-c3cnc(S(C)(=O)=O)nc3)cc2c1C#N` [US20250136596, Example 95], for which the IC50 is less than 10 nM.
`COc1ncc(-c2cc3c(C#N)c(-c4c(C)ccc(O)c4C)cnc3[nH]2)cn1` [US20250136596, Example 51]: the IC50 was less than 10 nM.

The values above are taken from BindingDB's records for patent US20250136596 (Insilico Medicine IP, 2025).
